Patent publication EP3366695B1, “SAPOSIN-A DERIVED PEPTIDES AND USES THEREOF” (Children's Medical Center Corporation, priority 2009, dated 2021)

Assays:
Tsp-1 [1] = assay: Tsp-1 expression in prostate fibroblasts, western blot; assay type: cell-based, human; conditions: PC3 conditioned media in the presence of the inhibitor
Procedure: (§1) Methods of assaying the effects of mutant, fragment or variant Psap on Tsp-1 and p53 expression are described herein. Briefly, full-length, mutant, fragment and variant Psap are applied to the cell cultures prostate fibroblast. The conditioned media from PC3M-LN4 (LN4) and PC3 cells are used as controls, with PC3 as positive/stimulating control and LN4 as negative/inhibiting controls. After a period of […] (∼16 h), the cells are harvested, rinsed, and lysed. The lysates are analyzed for the level of Tsp-1 and p53 expression by western blot analyses, with β-actin as the internal lysate protein loading control. […]
(§2) For Western blotting, cells were harvested by mechanical scraping into 4°C PBS, cell pellets were obtained by removing PBS after centrifugation at 13,000rpm in a Heraeus Biofuge Fresco (Thermo Electron, Asheville, NC) for 2 min. Cells were then lysed in 50 mM Tris-HCl (pH 7.4), 150 mM NaCl, 1 % NP40, 1 mM sodium orthovanadate, 5 mM NaF, 20 mM β-glycerophosphate, and complete protease inhibitor (Roche, Indianapolis, IN) and protein concentrations were determined by the BioRad protein assay (BioRad, Hercules, CA). […] Protein volume intensity was determined using a Bio-Rad Chemi-Doc XRS system (Bio-Rad, CA).

p53 [2] = assay: p53 expression in prostate fibroblasts, western blot; assay type: cell-based, human; conditions: PC3 conditioned media in the presence of the inhibitor
Procedure: as §1, §2

Tsp-1 [3] = assay: Tsp-1 expression in WI-38 lung fibroblasts, western blot; assay type: cell-based, human
Procedure: For Western blotting, cells were harvested by mechanical scraping into 4°C PBS, cell pellets were obtained by removing PBS after centrifugation at 13,000rpm in a Heraeus Biofuge Fresco (Thermo Electron, Asheville, NC) for 2 min. Cells were then lysed in 50 mM Tris-HCl (pH 7.4), 150 mM NaCl, 1 % NP40, 1 mM sodium orthovanadate, 5 mM NaF, 20 mM β-glycerophosphate, and complete protease inhibitor (Roche, Indianapolis, IN) and protein concentrations were determined by the BioRad protein assay (BioRad, Hercules, CA). Fifty micrograms of protein were loaded per well onto a 4-12 % pre-cast Bis-Tris gel (BioRad, Hercules, CA). The protein extracts were electrophoresed and transferred to an immobilon-P membrane (Millipore, Bedford, MA). The membranes were blocked in 5 % nonfat milk and incubated in primary antibody to Tsp-1 (Ab-11, LabVision, Fremont, CA), c-Myc and phospho-Myc (Cell Signaling Technology, Beverly, MA), Prosaposin (Santa Cruz Biotechnology, Santa Cruz, CA), β-actin (AbCam, Cambridge, UK). […] Protein volume intensity was determined using a Bio-Rad Chemi-Doc XRS system (Bio-Rad, CA). […]
Seven 20-amino acid (20-mer) peptides derived from saposin A were tested for ability to stimulate Tsp-1 expression in fibroblasts. […] WI-38 lung fibroblasts were treated with these peptides overnight and the Tsp-1 expression was analyzed by Western blot analysis. […]

thrombospondin-1 (Tsp-1) = assay: Tsp-1 expression in lungs and livers of treated mice, western blot; assay type: in vivo
Procedure: The 20-mer […] (SEQ. ID. No. 29) was tested in vivo in mice for their ability to induce Tsp-1 expression. Four mice were treated with the 20-amino acid peptide (residues 31-50 of saposin A) at a dose of 30mg/kg/day in combination with 200uL of conditioned media (CM) from the metastatic prostate cancer cell line PC3M-LN4. […] Another four mice were treated with CM from PC3M-LN4 alone, and a control group of four mice with treated with vehicle (PBS) alone. […] Mice were treated for 9 days after which they were sacrificed and the lungs and livers were harvested and lysed. Tissue lysates were then run on a 4-12% gradient bis-tris polyacrylamide gel and transferred to a nitrocellulose membrane for western blotting with antibodies specific for thrombospondin-1 (Tsp-1) and β-actin.

p53 [4] = assay: p53 expression in WI-38 fibroblasts, western blot; assay type: cell-based, human; conditions: cyclic 13-mer plus D4476
MDM2 = MDM2 protein levels in WI-38 fibroblasts, western blot; assay type: cell-based, human; conditions: cyclic 13-mer plus D4476
[5] = mice treated for 9 days, relative to control (vehicle PBS)
[6] = mice, 30mg/kg/day with 200uL PC3M-LN4 CM, 9 days, compared to PC3M-LN4 CM

Question: With `COc1ccc2c(c1)c(C1=C(c3c[nH]c4ccccc34)C(=O)NC1=O)cn2CCCN(C)C` [Gö 6983] as the compound, how does the “stimulation of Tsp-1 by PC3 CM” value (Tsp-1 [1]) read?
Answer: Its value is “abolished the stimulation of Tsp-1 and p53”.

Question: What about the “stimulation of p53 by PC3 CM” value (p53 [2]) of the same compound?
Answer: Its value is “abolished the stimulation of Tsp-1 and p53”.

Question: How did the Tsp-1 expression (Tsp-1 [3]; WI-38 fibroblasts treated with peptide) turn out when “LEKTCDWLPKPNMSASCKEI [20-mer, 20-mer peptide, residues 31-50 of saposin A]” was run?
Answer: The Tsp-1 expression was “able to stimulate Tsp-1 expression”.

Question: And the “Tsp-1 expression in the liver” value (thrombospondin-1 (Tsp-1); [5])?
Answer: Its value is “stimulated Tsp-1 expression over control”.

Question: And the “Tsp-1 expression in the lung” value (thrombospondin-1 (Tsp-1); [5])?
Answer: Its value is “stimulated Tsp-1 expression over control”.

Question: What about the “stimulated expression of Tsp-1 in the liver” value (thrombospondin-1 (Tsp-1); [6]) of the same compound?
Answer: Its value is 4 fold.

Question: And the “stimulated expression of Tsp-1 in the lung” value (thrombospondin-1 (Tsp-1); [6])?
Answer: The value was 6 fold.

Question: What about the “level of stimulation of Tsp-1” value (thrombospondin-1 (Tsp-1); mice, 9 days, compared with positive control PC3 conditioned media) of the same compound?
Answer: Its value is “greater than that of the weakly metastatic pancreatic cancer cell line PC3”.

Question: With `NC(=O)c1ccc(-c2nc(-c3ccc4c(c3)OCCO4)c(-c3ccccn3)[nH]2)cc1` [D4476] as the compound, how does the p53 protein levels (p53 [4]) read?
Answer: Its p53 protein levels is “reduction of Tsp-1 and p53”.

Question: And the Tsp-1 protein levels (Tsp-1 [3]; WI-38 fibroblasts, cyclic 13-mer plus D4476)?
Answer: Its Tsp-1 protein levels is “reduction of Tsp-1 and p53”.

Question: What about the MDM2 protein levels (MDM2) of the same compound?
Answer: Its MDM2 protein levels is “increase in MDM2 protein levels”.
